Source: paper PMC9241669, “Allantodapsone is a Pan-Inhibitor of Staphylococcus aureus Adhesion to Fibrinogen, Loricrin, and Cytokeratin 10” (Microbiology Spectrum, 2022)
Values joined by “and” are separate entries in the source; they are usually repeats but may differ in a detail not shown here. Equal entries are not always repeated. Where two headings read alike, the source gives them in different places.

Assays:
recombinant ClfB N2N3 = recombinant ClfB N2N3 (Staphylococcus aureus, UniProt O86476); experiment: ELISA of recombinant ClfB N2N3 binding to immobilized GST-L2v loricrin; parameters: species or system S. aureus; conditions: allantodapsone 100 μM; ClfB 5 μM; P < 0.0001
Sequence of recombinant ClfB N2N3 (O86476 201-542): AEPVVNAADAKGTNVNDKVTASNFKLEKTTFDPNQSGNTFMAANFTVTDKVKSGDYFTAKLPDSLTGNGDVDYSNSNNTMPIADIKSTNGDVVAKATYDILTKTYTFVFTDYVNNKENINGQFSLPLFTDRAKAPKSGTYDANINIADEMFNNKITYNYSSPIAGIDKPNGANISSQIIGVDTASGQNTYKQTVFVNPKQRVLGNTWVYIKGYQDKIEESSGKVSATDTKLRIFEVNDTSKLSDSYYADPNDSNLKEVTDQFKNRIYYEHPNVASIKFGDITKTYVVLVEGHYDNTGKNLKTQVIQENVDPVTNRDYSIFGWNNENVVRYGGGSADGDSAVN
Description: FIG 4 Allantodapsone inhibits S. aureus adhesion to loricrin and cytokeratin 10. Dose-response curve for adhesion of S. aureus Newman to GST-L2v loricrin (A) and CK10 (C). (B) Inhibition of recombinant ClfB N2N3 binding to immobilized GST-L2v loricrin by allantodapsone. (D) Inhibition of S. aureus Newman adhesion to GST-L2v loricrin by allantodapsone derivatives. Purified GST-L2v or CK10 were used to coat plates at 4°C overnight. Wells were washed with PBS and blocked with 1% BSA. Washed bacteria (OD600 of 1) were mixed with allantodapsone or vehicle control before being added to the wells and incubated for 2 h at 37°C. Adherent cells were washed, fixed, and stained with crystal violet, and wells further washed. The dye was dissolved in acetic acid, and the absorbance measured at 570 nm. GST-L2v was used at 20 μM in A and D. CK10 was used at 10 nM. […] Bound ClfB was detected using peroxidase-conjugated anti-His monoclonal antibody in an ELISA. […]
Recombinant GST-tagged L2v loricrin (120 nM) was coated onto a microtiter plate (Nunc Maxisorb) in sodium carbonate buffer (15 mM Na2CO3, 35 mM NaHCO3, pH 9.6) for 16 h at 4°C. […] Bound ClfB was detected with peroxidase-conjugated anti-His monoclonal antibody in 1% (wt/vol) skimmed milk proteins in PBS. […] The reaction was stopped by the addition of 2 M H2S0_4 (50 μL/well), and the A450 was measured in a plate reader (Labsystems).

S. aureus Newman [1] = experiment: Antimicrobial assay (bacterial growth in BHI broth); format: cell-based, Staphylococcus aureus; conditions: overnight in BHI broth, allantodapsone up to 100 μM, versus vehicle control
Description: S. aureus was grown in BHI broth shaking overnight at 37°C in the presence of a range of concentrations of allantodapsone, dapsone, or ampicillin as control. Absorbance was measured the following day at 570 nm. Data have been normalized to the relevant vehicle control (1% DMSO for allantodapsone and dapsone and water for ampicillin). […] Error bars represent SEM.
S. aureus was grown overnight in BHI broth at 37°C in shaking incubator. Wells were inoculated with 10 μL of overnight culture into 90 μL of broth containing the test compounds or controls. A growth control containing no agents was used (positive control), a sterility control of broth alone was included, and vehicle controls were included for each test compound. Plates were incubated overnight at 37°C and absorbance measured at 570 nm the following day using a Wallac Victor2, (Shelton, CT, USA).

S. aureus Newman [2] = experiment: Adhesion of S. aureus Newman to immobilized fibrinogen (crystal violet); format: cell-based, Staphylococcus aureus
Description: FIG 1 Allantodapsone inhibits S. aureus Newman adhesion to fibrinogen. Dose response curves for S. aureus Newman (A), L. lactis ClfA (B), and L. lactis ClfB (C) adhesion to fibrinogen. Fibrinogen was used to coat plates at 4°C overnight at 10 μg/mL. Wells were washed with PBS and blocked with 1% BSA. Washed bacteria (OD600 of 1) were mixed with the relevant concentration of allantodapsone or vehicle control (DMSO) for 5 min, and added to the wells, incubating for 2 h at 37°C. Adherent cells were washed, fixed, and stained with crystal violet, and wells further washed. The dye was dissolved in acetic acid and the absorbance measured at 570 nm. IC50 values were generated using GraphPad Prism 9.0 GraphPad software, San Diego, CA. Data are representative of three experiments with error presented as SEM.
FIG 2 Allantodapsone inhibits S. aureus adhesion to fibrinogen. (A) S. aureus Newman stationary phase and (B) exponential phase. (C) S. aureus SH1000 stationary phase and (D) exponential phase bacteria. Fibrinogen was used to coat plates at 4°C overnight at 10 μg/mL. Wells were washed with PBS and blocked with 1% BSA. Washed bacteria (OD600 of 1) were mixed with the relevant concentration of allantodapsone or vehicle control for 5 min, and added to the wells, incubating for 2 h at 37°C. Adherent cells were washed, fixed, and stained with crystal violet, and wells further washed. The dye was dissolved in acetic acid and the absorbance measured at 570 nm. Compounds were screened at a concentration of 70 μM and compared to their vehicle control. Statistical analysis was carried out using repeated measures ANOVA followed by multiple comparisons Dunnett’s tests using GraphPad PRISM. **, P ≤ 0.01; ***, P ≤ 0.001; ****, P ≤ 0.0001 (n = 3).
Adhesion assays were carried out according to Hartford et al. ([37]). Briefly, plates were coated with 10 μg/mL fibrinogen (Calbiochem, Darmstadt, Germany) or 20 μg/mL fibronectin (Sigma-Aldrich, Ireland) for 2 h at 37°C or for 16 h at 4°C. Plates were blocked with 1% BSA at 37°C for 1 h and washed 3 times in PBS. Washed bacteria were incubated at 37°C for 2 h. Adherent bacteria were washed three times in PBS and fixed in 5–9% formaldehyde at room temperature for 30 min. Wells were washed three times in PBS and stained using 5% crystal violet for 20 min. Wells were washed three times in PBS, and the crystal violet solubilized using 5% acetic acid. Plates were read at 570 nm on a Wallac Victor2, (Shelton, CT, USA). The minimum adhesion inhibitory concentration (MAIC) was determined as the concentration inhibiting greater than 90% bacterial adhesion.
Compounds were added to the bacterial suspension prior to addition to the wells. In each experiment, vehicle controls were prepared using the same volume of vehicle for the matching test compound.

SMILES: Nc1ccc(S(=O)(=O)c2ccc(NCN3C(=O)NC(=O)C(=O)C3=O)cc2)cc1 [Allantodapsone]
- inhibition of recombinant ClfB binding to L2v loricrin (recombinant ClfB N2N3): inhibited
- inhibition of bacterial growth (words) (S. aureus Newman [1]): does not inhibit bacterial growth
- inhibition of bacterial growth (words) (S. aureus Newman [1]; listed as allantodapsone): no inhibition of bacterial growth
- minimum adhesion inhibitory concentration (MAIC) (S. aureus Newman [2]; S. aureus Newman stationary phase, concentration inhibiting greater than 90% adhesion to fibrinogen): 100 μM and 40.2 μg/mL
- inhibition of adhesion to fibrinogen (S. aureus Newman [2]; S. aureus Newman, stationary and exponential phase, compounds screened at 70 μM (Fig. 2)): inhibited
- IC50 (S. aureus Newman [2]; Staphylococcus aureus, NEWMAN, read-out: IC50, inhibition of adhesion to fibrinogen, S. aureus Newman exponential phase): 32.8 µM
- IC50 (S. aureus Newman [2]; Staphylococcus aureus, NEWMAN, read-out: IC50, inhibition of adhesion to fibrinogen, S. aureus Newman stationary phase, fibrinogen 10 μg/mL): 23 µM
- IC50 (S. aureus Newman [2]; read-out: IC50, inhibition of adhesion to fibrinogen, S. aureus Newman stationary phase, fibrinogen 10 μg/mL): 21.3 µM
